Source: publication PMC11727260, “Free Cholesterol‐Induced Liver Injury in Non‐Alcoholic Fatty Liver Disease: Mechanisms and a Therapeutic Intervention Using Dihydrotanshinone I” (Advanced Science, 2024)
Numbering of substitutions follows the chain as printed.

Columns and labels:
[1] = target: T1, peroxisome proliferator-activated receptor α (PPARα) (Homo sapiens, UniProt Q07869); assay: microscale thermophoresis with purified recombinant EGFP-PPARα LBD; assay type: binding
T1 construct: gene PPARA
T1 sequence (Q07869 200-468): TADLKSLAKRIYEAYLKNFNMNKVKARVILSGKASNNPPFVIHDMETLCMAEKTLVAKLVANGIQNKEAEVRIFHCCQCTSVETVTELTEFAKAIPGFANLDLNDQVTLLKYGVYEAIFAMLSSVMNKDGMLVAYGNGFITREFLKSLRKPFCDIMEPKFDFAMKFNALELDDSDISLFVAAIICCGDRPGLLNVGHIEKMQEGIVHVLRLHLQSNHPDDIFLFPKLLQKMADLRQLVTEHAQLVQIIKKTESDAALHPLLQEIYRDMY

[2] = target: T2, peroxisome proliferator-activated receptor α (PPARα) (Homo sapiens, UniProt Q07869, T283A); assay: microscale thermophoresis with purified recombinant EGFP-PPARα LBD T283A; assay type: binding
T2 construct: gene PPARA
T2 sequence (Q07869 200-468 T283A): T1 sequence (Q07869 200-468) with T84A

Cc1cccc2c3c(ccc12)C1=C(C(=O)C3=O)[C@@H](C)CO1 [DhT, dihydrotanshinone I]
Kd [1]: 1.66 ± 0.5 µM
Kd [2]: 32.9 ± 6.1 µM
